Columns and labels:
[1] = biological target: TSPO protein separated and purified from rat heart (Rattus norvegicus (Rat), UniProt P16257); assay: TSPO and radioligand (3H-PK11195) competitive binding test; conditions: for Inhibition rate (%): n = 6 times
Protocol: In the present test, TSPO protein separated and purified from rat heart was used as screening target, via competitive binding test with radioligand (^3H-PK11195), to screen TSPO ligand compounds.
Wister rats, 220-260 g, female and male, were sacrificed by decapitation and the rat heart were rapidly separated, weighed and to which homogenized in 10 times volume of Tris-HCl buffer solution (50 mM Tris-HCl, 5 mM MgCl2, 1 mM EDTA, 0.5% (W/V) BSA, 1 mM PMSF, 3 μg/ml proteinase inhibitor, 0.1% NaN3, 0.32M sucrose, pH 7.4) at 15,000 rpm for 30 s, total 5 times. The homogenate was centrifuged under 1000×g for 10 minutes and the supernatant was then centrifuged under 30000×g for 20 minutes. The precipitate was collected, and resuspended with 10 times volume of Tris-HCl buffer solution (pH 7.4) relative to the original weight, then centrifuged under 30000×g for 20 minutes. The precipitate was washed with the same buffer solution, centrifuged under 30000×g for 20 minutes and the precipitate was suspended with the above buffer solution. After sub-packaged (the whole operation procedures were performed under ice bath), the product was stored at −80° C.
3) Competitive Binding Test of Drug to the Receptor (Rat Heart TSPO) and Radioligand (^3H-PK11195):
(1) tubes were placed in reaction condition of 30° C.
(2) all tubes were added with 20 μg of receptor protein in order;
(3) the test tubes were added in order with 20 μL of drugs in certain concentrations;
(4) the non-specific binding tubes were added with 20 μL of non-tagged ligand (PK11195), the final concentration of the non-tagged ligand was 0.1 mM, pre-reacted for 30 min;
(5) all tubes were added in order with 25 μL ^3H-PK11195, the final concentration of the labeled ligand was 1.5 nM;
(6) Tris-HCl Buffer pH7.4 was used to complement the reaction volumes of all tubes to reach 200 μL;
(7) the reaction was performed under 30° C. reaction condition for 1 h;
(8) Then samples were applied to 49-type glass fibre filter, vacuum suction filtered, then washed with 2 ml ice-cold Tris-HCl buffer solution (50 mM Tris-HCl buffer solution, 1 mM EDTA, 5 mM MgCl2, 1 mM PMSF, 0.1% NaN3, 3 μg/ml proteinase inhibitor, pH 7.4). The filter was dried and placed in a scintillation vial with 1 ml of scintillation fluid. The radio-activity was measured by a scintillation counter.

[2] = test system: mice; assay: Mice open field spontaneous locomotor activity test; format: in vivo; conditions: intragastric
Excerpt: Experimental mechanism: the aim was to observe the effects of drugs on central nervous excitation, so as to exclude false positive reactions of anxiolytic or antidepressant effects caused by central nervous excitation.
1) Experimental device: the mice open field box was a colorless transparent organic glass box (30×36×25 cm), which bottom surface was divided into 9 lattices.
2) Experimental operation: Compound 8(8^#, YL-IPA08), Compound 10(10^#, YL-IPA10), Compound 11(11^#, YL-IPA11) and Compound 13(13^#, YL-IPA13) (separately having three dose groups of 0.03, 0.3, 3 mg/kg) and blank control (distilled water, DW) were administered intragastrically, and the test started after 55 min. During test, the mice were placed in the central area of the open field spontaneous locomotor activity observation box, started timing immediately, the spontaneous activities of mice within 5 min were recorded artificially (observation indexes: number of rearings, number of crossings).

[3] = test system: mice; assay: Mice tail suspension test; format: in vivo
Excerpt: Experimental mechanism: mice tail suspension test was an acute behavioral despair model established by Steru et al (1985). […] This model was easy in operation, with good predictability, and was the most popular model for screening antidepressants. 1) Experimental device: an experimental frame with spacing boards which dividing the experimental frame into 2 experimental chambers (25×25×35 cm). A clamp is mounted on a through cross rod in the chamber. Male Kunming mice weighing 20-25 g. The mice were intragastrically administered with Compound 8, vehicle (distilled water, DW) or positive control drug (desipramine, DMI). After 1 h, wrap adhesive tape around the mouse's tail three quarters of the distance from the base of the tail and then suspend the animals by passing the suspension hook through the adhesive tape 5 cm above the table. The duration of immobility in the last 4 min of total 6 min test was recorded.

[4] = test system: mice; assay: Mice elevated plus maze test; format: in vivo
[5] = test system: mice; assay: Blocking effects of TSPO antagonist PK11195 on Compound 8 antidepressant activity in mice tail suspension test; format: in vivo; conditions: 3 mg/kg, ip
Protocol: The optimum dose (0.1 mg/kg) of YL-IPA08 in antidepressant effect of mice in tail suspension model was used to perform drug antagonism test, and the method was identical to that of Example 43, except that PK11195 group and PK11195+Compound 8 antagonism group with single intraperitoneal injection (ip) were added, wherein the antagonism group was administered by intraperitoneal injection with PK11195 simultaneously when Compound 8 was intragastrially administered.
Statistic method: the results were expressed in mean±SEM. The result was determined by two-way analysis of variance, and Bonferroni test was used for group comparison.

[6] = doses 0.03, 0.3, 3 mg/kg, 55 min after dosing, 5 min observation
[7] = 9 gradient concentrations, plotting and fitting

Row | SMILES | Inhibition rate (%) ([1]; 1 × 10^−5M) | Inhibition rate (%) ([1]; 1 × 10^−7M) | Inhibition rate (%) ([1]; 1 × 10^−9M) | melting point [°C] | other results
1 | CCN(Cc1ccccn1)C(=O)Cc1c(-c2ccc(Cl)c(Cl)c2)nc2cc(C)ccn12.Cl [Compound 8, N-ethyl-N-(2-pyridinylmethyl)-2-(3,4-dichlorophenyl)-7-methylimidazo[1,2-a]pyridine-3-acetamide.hydrochloride] | 100 | 89 | 30 | 217 to 220 | number of rearings, number of crossings (open field spontaneous activity) versus control [2, 6]: equivalent to those of the control; optimum dose in antidepressant effect ([3]; mice tail suspension model): 0.1 mg/kg
2 | CCN(Cc1ccncc1)C(=O)Cc1c(-c2ccc(Cl)c(Cl)c2)nc2cc(C)ccn12.Cl [Compound 10, N-ethyl-N-(4-pyridinylmethyl)-2-(3,4-dichlorophenyl)-7-methylimidazo[1,2-a]pyridine-3-acetamide.hydrochloride] | 100 | 85 | 23 | 250 to 252 | number of rearings, number of crossings (open field spontaneous activity) versus control [2, 6]: equivalent to those of the control
3 | COCCN(Cc1ccccn1)C(=O)Cc1c(-c2ccc(Cl)c(Cl)c2)nc2cc(C)ccn12.Cl [Compound 11, N-(2-methoxyethyl)-N-(2-pyridinylmethyl)-2-(3,4-dichlorophenyl)-7-methylimidazo[1,2-a]pyridine-3-acetamide.hydrochloride] | 100 | 65 | 29 | 236 to 238 | number of rearings, number of crossings (open field spontaneous activity) versus control ([2]; dose 3 mg/kg): equivalent to the control; number of rearings, number of crossings (open field spontaneous activity) versus control ([2]; doses 0.03 and 0.3 mg/kg): lower than the control
4 | CCN(Cc1ccccc1)C(=O)Cc1c(-c2ccc(C)cc2)nc2cc(C)ccn12 [Compound 13, N-benzyl-N-ethyl-2-(4-methylphenyl)-7-methylimidazo[1,2-a]pyridine-3-acetamide] | 97 | 89 | 42 | 220 to 222 | IC50 [1, 7]: 6.99 nM; Ki [1, 7]: 2.97 nM; number of rearings, number of crossings (open field spontaneous activity) versus control [2, 6]: apparently lower than the control; all elevated plus maze indexes versus control ([4]; mice, dose 0.03, 0.3, 3 mg/kg): significantly lower than the control
5 | COCCN(CCN1CCOCC1)C(=O)Cc1c(-c2ccc(C)cc2)nc2cc(C)ccn12.Cl [Compound 25, N-(2-methoxyethyl)-N-(2-morpholinylethyl)-2-(4-methylphenyl)-7-methylimidazo[1,2-a]pyridine-3-acetamide.hydrochloride] | 31 | 0 | 0 | 165 to 167 | 
6 | COCCN(CCN1CCOCC1)C(=O)Cc1c(-c2ccc(C)cc2)nc2ccc(C)cn12.Cl [Compound 26, N-(2-methoxyethyl)-N-(2-morpholinylethyl)-2-(4-methylphenyl)-6-methylimidazo[1,2-a]pyridine-3-acetamide.hydrochloride] | 48 | 1 | 0 | 245 to 247 | 
7 | CCN(Cc1ccncc1)C(=O)Cc1c(-c2ccc(C)cc2)nc2ccc(C)cn12.Cl [Compound 27, N-ethyl-N-(4-pyridinylmethyl)-2-(4-methylphenyl)-6-methylimidazo[1,2-a]pyridine-3-acetamide.hydrochloride] | 91 | 65 | 0 | 222 to 224 | 
8 | CCN(Cc1ccncc1)C(=O)Cc1c(-c2ccc(Cl)cc2)nc2ccc(C)cn12.Cl [Compound 28, N-ethyl-N-(4-pyridinylmethyl)-2-(4-chlorophenyl)-6-methylimidazo[1,2-a]pyridine-3-acetamide.hydrochloride] | 84 | 33 | 0 | 229 to 231 | 
9 | CCC(C)N(C)C(=O)c1cc2ccccc2c(-c2ccccc2Cl)n1 (centres unmarked) [PK11195] |  |  |  |  | immobility time in mice tail suspension test, single administration versus control [5]: no significant influence
10 | CNCCCN1c2ccccc2CCc2ccccc21 [desipramine, reference compound] |  |  |  |  | minimum effective dose to generate antidepression activity ([3]; mice tail suspension test): 30 mg/kg
11 | CN1C(=O)CN=C(c2ccccc2)c2cc(Cl)ccc21 [diazepam, reference compound] |  |  |  |  | minimum effective dose for generating anxiolytic-like effects ([4]; mice elevated plus maze, ip): 2 mg/kg

Source: patent US8980887B2, “2-aryl imidazo[1,2-a]pyridine-3-acetamide derivatives, preparation methods and uses thereof” (Institute of Pharmacology, priority 2010, dated 2015)
